# Measured values reported in patent US11840686B2, “Modulation of prekallikrein (PKK) expression” (Ionis Pharmaceuticals, Inc., priority 2013, dated 2023).
# Where “and” joins values, the source holds several entries; their conditions need not be identical. Equal entries are not always repeated. Strand notation (5' to 3'): a small letter for the sugar, then the base; units joined by * are phosphorothioate-linked, units joined directly phosphodiester-linked; [ ] holds rarer units or linkages, { } end groups; capitals alone tell only the bases. e = 2'-O-(2-methoxyethyl) (MOE); [5mC] = 5-methylcytosine; d = 2'-deoxy (DNA)
# Tests used:
# [1] = test system: human PKK mRNA; test: Dose-dependent antisense inhibition of human PKK in HepaRG cells, 0.19-5.00 uM (Example 5); format: cell-based
# Outline: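 PKK mRNA knockdown was measured by real-time PCR (primer probe set RTS3454) about 16 h after electroporating 20,000 HepaRG cells per well with oligonucleotide at four doses from 0.19 to 5.00 μM. Levels were adjusted to RIBOGREEN-measured total RNA, and IC50 values were calculated.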
# [2] = test system: captopril and ISIS 461756-induced vascular permeability; test: Evans Blue vascular permeability in captopril and ISIS 461756-induced angioedema mouse models (Example 11); format: in vivo; settings: for OD600 nm of Evans Blue dye, Colons / OD600 nm of Evans Blue dye, Ears / OD600 nm of Evans Blue dye, Feet / OD600 nm of Evans Blue dye, Intestines: captopril Yes
# Text: Hereditary angioedema (HAE) is characterized by local swelling and increase in vascular permeability in subcutaneous tissues (Morgan, B. P. N. Engl. J. Med. 363: 581-83, 2010). It is caused by a deficiency of the C1 inhibitor, a protein of the complement system. Two mouse models were used in this study including an established mouse model of C1-INH deficiency and a captopril-induced edema model, both of which cause vascular permeability, a hallmark of HAE. Reversal of vascular permeability is accompanied by increased plasma levels of high molecular weight kininogen (HMWK).
# In the first model, angioedema was induced by treatment with Captopril, a known antihypertensive agent, which increases vascular permeability in mice and replicates the pathology of hereditary angioedema.
# In the second model, angioedema was induced by treatment with ISIS 461756, an antisense oligonucleotide which targets murine C1 inhibitor mRNA, which increases vascular permeability in mice and replicates the pathology of hereditary angioedema. ISIS 461756 (SEQ ID NO: 2245; […]) is a 5-10-5 MOE gapmer targeting nucleosides 1730-1749 of NM_009776.3 (SEQ ID NO: 2243).
# The effect of HOE-140 and ISIS 482584, an antisense oligonucleotide inhibitor of PKK, were evaluated in the Captopril and ISIS 461756-induced mouse models of vascular permeability. Some of the murine groups were treated with HOE-140, a selective antagonist of the bradykinin B2 receptor, which blocks vasodilation and vascular permeability (Cruden and Newby, Expert Opin. Pharmacol. 9: 2383-90, 2008). Other mice were treated with ISIS 482584, which inhibits PKK mRNA expression. The effect of treatment with HOE-140 was compared with the effect of treatment with ISIS 482584.
# Group 1 consisted of 4 C57BL/6J-Tyrc-2J mice treated with PBS administered subcutaneously twice a week for 4 weeks. No other treatment was administered to Group 1 which served as a control group to measure the basal level of vascular permeability.
# Group 2 consisted of 8 C57BL/6J-Tyrc-2J mice treated with PBS administered subcutaneously twice a week for 4 weeks. At the end of the treatment, the mice were intraperitoneally administered 20 μg of captopril. Group 2 served as a PBS control group for captopril-induced vascular permeability.
# (§1) Group 3 consisted of 8 C57BL/6J-Tyrc-2J mice treated with PBS administered subcutaneously twice a week for 4 weeks. On day 14, the mice were treated with 50 mg/kg of the antisense oligonucleotide targeting C1 inhibitor, ISIS 461756, administered subcutaneously twice a week for 2 weeks. At the end of the treatment period, the mice were intraperitoneally administered 20 μg of captopril. Group 3 served as a PBS control group for captopril and ISIS 461756-induced vascular permeability.
# Group 4 consisted of 8 C57BL/6J-Tyrc-2J mice treated with PBS administered subcutaneously twice a week for 4 weeks. On day 14, the mice were treated with 50 mg/kg of the antisense oligonucleotide targeting C1 inhibitor, ISIS 461756, administered subcutaneously twice a week for 2 weeks. At the end of the treatment period, the mice were intraperitoneally administered 20 μg of captopril. The mice were then also intraperitoneally administered 30 μg of HOE-140. Group 4 served as a positive control for inhibition of vascular permeability with HOE-140.
# as §1, with “5” for “3”, “40 mg/kg of control oligonucleotide ISIS 141923, a 5-10-5 MOE gapmer with no known murine target, ([…]; SEQ ID NO: 2246)” for “PBS”, “a” for “a PBS”, “permeability. […]” for “permeability.”
# [3] = HepaRG cells, electroporation, approximately 16 hours, Table 35
# [4] = HepaRG cells, electroporation, approximately 16 hours, Table 36
# [5] = HepaRG cells, electroporation, approximately 16 hours, Table 37
# [6] = HepaRG cells, electroporation, approximately 16 hours, Table 38
# [7] = HepaRG cells, electroporation, approximately 16 hours, Table 39
# [8] = HepaRG cells, electroporation, approximately 16 hours, Table 40
# [9] = Table 34, HepaRG, electroporation, ~16 h
# [10] = ISIS 461756 Yes, ISIS oligonucleotides 40 mg/kg sc twice a week 4 weeks, HOE-140 30 μg ip
# [11] = ISIS 461756 No, 40 mg/kg sc twice a week 4 weeks
compound,measurement,setting,value
531231 (eT*eA*eT*e[5mC]*eA*d[5mC]*dT*dG*dT*dA*d[5mC]*dT*dA*dG*dT*eT*eT*e[5mC]*e[5mC]*eT) [compound 531231],percent inhibition of PKK at 0.19 μM,[1]; [3],25%
same,percent inhibition of PKK at 0.19 μM,[1]; [4],58%
same,percent inhibition of PKK at 0.19 μM,[1]; [5],34%
same,percent inhibition of PKK at 0.19 μM,[1]; [6],21%
same,percent inhibition of PKK at 0.19 μM,[1]; [7],21%
same,percent inhibition of PKK at 0.19 μM,[1]; [8],6%
same,percent inhibition of PKK at 0.56 μM,[1]; [3],34%
same,percent inhibition of PKK at 0.56 μM,[1]; [4],64%
same,percent inhibition of PKK at 0.56 μM,[1]; [5],47%
same,percent inhibition of PKK at 0.56 μM,[1]; [6],45%
same,percent inhibition of PKK at 0.56 μM,[1]; [7],39%
same,percent inhibition of PKK at 0.56 μM,[1]; [8],38%
same,percent inhibition of PKK at 1.67 μM,[1]; [3],84%
same,percent inhibition of PKK at 1.67 μM,[1]; [4],77%
same,percent inhibition of PKK at 1.67 μM,[1]; [5],72%
same,percent inhibition of PKK at 1.67 μM,[1]; [6],67%
same,percent inhibition of PKK at 1.67 μM,[1]; [7],90%
same,percent inhibition of PKK at 1.67 μM,[1]; [8],74%
same,percent inhibition of PKK at 5.00 μM,[1]; [3],92%
same,percent inhibition of PKK at 5.00 μM,[1]; [4],98%
same,percent inhibition of PKK at 5.00 μM,[1]; [6],96%
same,percent inhibition of PKK at 5.00 μM,[1]; [7],97%
same,percent inhibition of PKK at 5.00 μM,[1]; [8],95%
same,percent inhibition of PKK at 5.00 μM,"[1]; HepaRG cells, electroporation, approximately 16 hours, Table 41",97%
same,percent inhibition of PKK at 0.19 0μM,"[1]; 0.19 0μM, HepaRG cells, electroporation, approximately 16 hours, Table 41",25%
same,percent inhibition of PKK at 0.56 0μM,"[1]; 0.56 0μM, HepaRG cells, electroporation, approximately 16 hours, Table 41",55%
same,percent inhibition of PKK at 1.67 1μM,"[1]; 1.67 1μM, HepaRG cells, electroporation, approximately 16 hours, Table 41",89%
same,IC50,"[1]; 4 point dose response, HepaRG cells, Table 35",700 nM
same,IC50,"[1]; 4 point dose response, HepaRG cells, Table 37",500 nM
same,IC50,"[1]; 4 point dose response, HepaRG cells, Table 38",700 nM
same,IC50,"[1]; 4 point dose response, HepaRG cells, Table 39",600 nM
same,IC50,"[1]; 4 point dose response, HepaRG cells, Table 40",800 nM
same,IC50,"[1]; 4 point dose response, HepaRG cells, Table 41",500 nM
same,"percent inhibition of PKK mRNA, 0.19 μM","[1]; HepaRG cells, 0.19 μM antisense oligonucleotide",7% and 6%
same,"percent inhibition of PKK mRNA, 0.56 μM","[1]; HepaRG cells, 0.56 μM antisense oligonucleotide",39% and 56%
same,"percent inhibition of PKK mRNA, 1.67 μM","[1]; HepaRG cells, 1.67 μM antisense oligonucleotide",56% and 68%
same,"percent inhibition of PKK mRNA, 5.00 μM","[1]; HepaRG cells, 5.00 μM antisense oligonucleotide",97%
same,IC50,"[1]; HepaRG cells, 0.19-5.00 μM",1000 nM and 800 nM
same,percent inhibition of PKK at 0.19 μM,[1]; [9],32%
same,percent inhibition of PKK at 0.56 μM,[1]; [9],30%
same,percent inhibition of PKK at 1.67 μM,[1]; [9],73%
same,percent inhibition of PKK at 5.00 μM,[1]; [9],89%
same,IC50,"[1]; Table 34, PKK mRNA, HepaRG, electroporation, ~16 h",500 nM
"NC(N)=NCCC[C@@H](N)C(=O)N[C@@H](CCCN=C(N)N)C(=O)N1CCC[C@H]1C(=O)N1C[C@H](O)C[C@H]1C(=O)NCC(=O)N[C@@H](Cc1cccs1)C(=O)N[C@@H](CO)C(=O)N1Cc2ccccc2C[C@@H]1C(=O)N1[C@H](C(=O)N[C@@H](CCCN=C(N)N)C(=O)O)C[C@@H]2CCCC[C@@H]21 [HOE-140, Icatibant, reference compound]","OD600 nm of Evans Blue dye, Colons",[2]; [10],0.14
same,"OD600 nm of Evans Blue dye, Ears",[2]; [10],0.09
same,"OD600 nm of Evans Blue dye, Feet",[2]; [10],0.07
same,"OD600 nm of Evans Blue dye, Intestines",[2]; [10],0.18
"ISIS 482584: 5-10-5 MOE gapmer targeting murine PKK, GGCATATTGGTTTTTGGAAT; SEQ ID NO: 2244 (antisense eG*eG*e[5mC]*eA*eT*dA*dT*dT*dG*dG*dT*dT*dT*dT*dT*eG*eG*eA*eA*eT)",vascular permeability,"[2]; 40 mg/kg s.c. twice a week for 4 weeks, mice treated with captopril or captopril and ISIS 461756, vs PBS controls",prevents vascular permeability
same,"OD600 nm of Evans Blue dye, Colons",[2]; [11],0.27
same,"OD600 nm of Evans Blue dye, Ears",[2]; [11],0.14
same,"OD600 nm of Evans Blue dye, Feet",[2]; [11],0.07
same,"OD600 nm of Evans Blue dye, Intestines",[2]; [11],0.30
same,"OD600 nm of Evans Blue dye, Colons",[2]; [10],0.21
same,"OD600 nm of Evans Blue dye, Ears",[2]; [10],0.06
same,"OD600 nm of Evans Blue dye, Feet",[2]; [10],0.07
same,"OD600 nm of Evans Blue dye, Intestines",[2]; [10],0.34
Tes Ges mCes Aes Aes Gds Tds mCds Tds mCds Tds Tds Gds Gds mCds Aes Aes Aes mCes Ae [ISIS 546254],IC50,"[1]; 4 point dose response curve (0.19-5.0 μM), HepaRG cells, electroporation",200 nM and 300 nM
